# According to patent US4696929A, “Derivative of piperazine having anti-allergic and anti-inflammatory action” (Taiho Pharmaceutical Company, Limited, priority 1984, dated 1987):
# Tests used:
# lipoxygenase = conditions: background art; cited from earlier work
# cyclooxygenase = conditions: background art; cited from earlier work
# 5-lipoxygenase = molecular target: T1, 5-lipoxygenase (Cavia porcellus, UniProt A0A286X958); experiment: Assay of 5-lipoxygenase (PMNL cytosol fraction, 5-HETE formation); type: biochemical, guinea pig (male Hartley strain); conditions: 3 min pre-incubation, then [1-14C]arachidonic acid 5 min, 37° C., 1% DMSO, 5-HETE counted
# T1 construct: 105,000×g for 60 min to obtain the cytosol fraction; endogenous in cells; host or cells: casein-elicited peritoneal polymorphonuclear leukocytes of male Hartley guinea pigs, 105,000×g cytosol fraction
# T1 sequence (A0A286X958 1-674): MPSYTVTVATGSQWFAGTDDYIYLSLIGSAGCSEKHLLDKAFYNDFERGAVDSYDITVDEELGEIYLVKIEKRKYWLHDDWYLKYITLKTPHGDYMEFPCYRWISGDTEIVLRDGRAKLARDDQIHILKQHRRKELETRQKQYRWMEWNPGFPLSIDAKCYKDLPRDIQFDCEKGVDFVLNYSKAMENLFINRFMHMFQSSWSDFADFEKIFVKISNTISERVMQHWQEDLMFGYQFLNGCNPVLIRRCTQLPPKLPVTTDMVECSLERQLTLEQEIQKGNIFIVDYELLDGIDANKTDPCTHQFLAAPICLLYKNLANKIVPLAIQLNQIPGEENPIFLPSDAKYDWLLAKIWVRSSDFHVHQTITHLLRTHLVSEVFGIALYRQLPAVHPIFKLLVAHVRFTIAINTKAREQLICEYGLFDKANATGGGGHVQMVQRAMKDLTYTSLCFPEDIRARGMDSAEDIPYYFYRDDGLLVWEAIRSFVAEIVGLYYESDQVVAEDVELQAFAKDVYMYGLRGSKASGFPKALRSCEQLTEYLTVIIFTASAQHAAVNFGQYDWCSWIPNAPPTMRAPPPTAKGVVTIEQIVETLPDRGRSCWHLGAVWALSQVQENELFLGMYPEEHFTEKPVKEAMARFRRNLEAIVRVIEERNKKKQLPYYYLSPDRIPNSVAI
# Method: Assay of 5-lipoxygenase […] Male Hartley strain guinea pigs weighing 580~740 g received intraperitoneal injection of 2% casein in saline (5 ml/100 g body weight). After 16~18 hr, the guinea pigs were sacrificed by bleeding from the carotid artery. Then 50 ml of Dulbecco's phosphate-buffered saline (PBS(-)) containing 5 units/ml of heparin were injected into the peritoneal cavity and peritoneal exudate was collected. The exudate was combined and filtered through 4 layers of cheese cloth, followed by centrifugation at 1,000 rpm for 10 min. Cell pellets were suspended in small amounts of PBS(-) and treated 3 volumes of 0.2% NaCl to lyse contamination red blood cells. The cells (80% or more PMNL as identified by Wright-Giemsa stain) were washed twice with buffer A (130 mM NaCl, 25 mM phosphate, pH 7.4, 1 mM EDTA). The washed cells (1×10^8 cells/ml) were resuspended in 50 mM phosphate (pH 7.4) containing 1 mM EDTA and 0.1% gelatin, sonicated and centrifuged at 10,000×g for 20 min. The supernatant solution was further centrifuged at 105,000×g for 60 min to obtain the cytosol fraction. Enzyme assays Test compounds were dissolved in dimethyl sulfoxide (DMSO), and the final concentration of DMSO was kept at 1% in each experiment. […] Each reaction was terminated by precipitating the proteins with 1 ml acetone and added 0.5 ml ice-cold saline. The pH was adjusted to about 3 with 150 μl 2N formic acid. The mixture was extracted twice with 2 ml chloroform. […] Radioactive zone of 5-HETE [5(S)-hydroxy-6,8,11,14-eicosatetraenoic acid] was detected by autoradiography, scraped from the TLC plates, and counted by a liquid scintillation counter. IC50 (50% Inhibition Concentration) value indicates the concentration to decrease the enzymatic product by 50% as compared to that of vehicle-treated control.
# platelet cyclooxygenase = molecular target: T2, platelet cyclooxygenase (Oryctolagus cuniculus, UniProt O97554); experiment: Assay of platelet cyclooxygenase (intact washed platelets, TXB2 formation); type: cell-based, rabbit (male New Zealand White); conditions: 3 min pre-incubation, then [1-14C]arachidonic acid 5 min, 37° C., TXB2 counted
# T2 construct: 1 ml of intact washed platelet suspensions were pre-incubated with test compounds; endogenous in cells; host or cells: intact washed platelets of male New Zealand White rabbits
# T2 sequence (O97554 31-606): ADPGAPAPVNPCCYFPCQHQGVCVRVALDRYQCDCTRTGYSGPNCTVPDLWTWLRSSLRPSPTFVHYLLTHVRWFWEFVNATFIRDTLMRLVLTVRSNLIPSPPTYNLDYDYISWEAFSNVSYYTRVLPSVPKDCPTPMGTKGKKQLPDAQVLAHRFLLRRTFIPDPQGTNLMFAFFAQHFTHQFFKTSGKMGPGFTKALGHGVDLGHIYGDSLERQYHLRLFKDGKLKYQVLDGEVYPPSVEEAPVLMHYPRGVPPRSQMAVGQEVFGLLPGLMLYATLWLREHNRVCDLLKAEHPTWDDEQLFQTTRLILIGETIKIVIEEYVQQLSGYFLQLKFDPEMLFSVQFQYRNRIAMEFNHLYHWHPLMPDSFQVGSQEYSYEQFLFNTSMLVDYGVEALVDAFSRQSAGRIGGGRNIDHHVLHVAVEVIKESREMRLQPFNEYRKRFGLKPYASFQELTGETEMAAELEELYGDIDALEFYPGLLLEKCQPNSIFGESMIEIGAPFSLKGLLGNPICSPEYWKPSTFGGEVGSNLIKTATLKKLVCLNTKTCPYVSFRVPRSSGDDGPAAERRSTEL
# Method: Assay of platelet cyclooxygenase
# Preparation of washed platelet
# Citrated blood (blood/3.8% sodium citrate=9:1 by volume) was obtained by heart-puncture from male New Zealand White rabbits weighing 3.21~4.75 kg and centrifuged at 1,000 rpm for 10 min. The platelet-rich plasma (the supernatant layer: PRP) was further centrifuged at 3,000 rpm for 10 min, and the resulting platelet was washed twice with buffer A (130 mM NaCl, 25 mM phosphate, pH 7.4, 1 mM EDTA). The washed platelets were resuspended in 50 mM phosphate (pH 7.4) containing 1 mM EDTA and adjusted 1×10^8 platelets/ml.
# For the platelet cyclooxygenase assays, 1 ml of intact washed platelet suspensions were pre-incubated with test compounds (dissolved in DMSO) in the presence of 1 mM GSH at 37° C. for 3 min, and then the mixture was incubated with [1-^14 C]arachidonic acid (0.1 μCi) at 37° C. for 5 min. Each reaction was terminated and extracted by the addition of 3 ml of ethyl acetate/methanol/1M citric acid (30:4:1, v/v). The organic layer was evaporated under a N2 gas stream, redissolved in 30 μl of chloroform/methanol (2:1, v/v), and applied 20 μl to Silica gel TLC plates, and developed in the solvent system chloroform/methanol/acetic acid/H2 O (90:8:1:0.8, v/v). Radioactive zone of TXB2 (Thromboxane B2) was detected by autoradiography, scraped from the TLC plates, and counted by a liquid scintillation counter. IC50 value indicates the concentration to decrease the enzymatic product by 50% as compared to that of vehicle-treated control.
SMILES,IC50 (5-lipoxygenase) [µM],IC50 (platelet cyclooxygenase) [µM],lipoxygenase inhibition (in words) (lipoxygenase),cyclooxygenase inhibition (in words) (cyclooxygenase)
"CC(C(=O)O)c1ccc2oc(-c3ccc(Cl)cc3)nc2c1 (stereo not drawn) [Benoxaprofen, 2-(4-chlorophenyl)-α-methyl-5-benzoxazoleacetic acid]",24,,lipoxygenase-inhibiting actions,cyclooxygenase-inhibiting
"COc1ccc2c(c1)c(CC(=O)OC(CN1CCN(CCO)CC1)c1ccccc1)c(C)n2C(=O)c1ccc(Cl)cc1 (stereo not shown) [Example 9, 2-{4-(2-hydroxyethyl)-1-piperazinyl}-1-phenylethyl 1-(p-chlorobenzoyl)-5-methoxy-2-methyl-3-indoylacetate dimaleate]",1.7,9.2,,
"COc1ccc2c(c1)c(CC(=O)OC(CN1CCN(CCCCCCCCCCO)CC1)c1ccccc1)c(C)n2C(=O)c1ccc(Cl)cc1 (stereo not shown) [Example 12, 2-{4-(10-hydroxydecyl)-1-piperazinyl}-1-phenylethyl 1-(p-chlorobenzoyl)-5-methoxy-2-methyl-3-indoylacetate dimaleate]",0.9,,,
"COc1ccc2c(c1)c(CC(=O)OC(C)(C)CN1CCN(CCCOC3CCCCO3)CC1)c(C)n2C(=O)c1ccc(Cl)cc1 (stereo not shown) [Example 13, 1-methyl-2-[4-{3-(2-tetrahydropyranyloxy)propyl}-1-piperazinyl]-2-methyl-2-propyl 1-(p-chlorobenzoyl)-5-methoxy-2-methyl-3-indoylacetate]",4.7,22.3,,
COc1ccc2c(c1)c(CC(=O)O)c(C)n2C(=O)c1ccc(Cl)cc1 [Indomethacin],242,,does not inhibit lipoxygenase reaction,has cyclooxygenase-inhibiting action

# The next lines start with results.
IC50 (5-lipoxygenase) [µM],IC50 (platelet cyclooxygenase) [µM],SMILES,lipoxygenase inhibition (in words) (lipoxygenase),cyclooxygenase inhibition (in words) (cyclooxygenase)
1.6,20.4,"COc1ccc2c(c1)c(CC(=O)OC(CN1CCN(CCCO)CC1)c1ccccc1)c(C)n2C(=O)c1ccc(Cl)cc1 (stereo not shown) [Example 7, 2-{4-(3-hydroxypropyl)-1-piperazinyl}-1-phenylethyl 1-(p-clorobenzoyl)-5-methoxy-2-methyl-3-indoylacetate dimaleate]",,
6.9,30.6,"COc1ccc2c(c1)c(CC(=O)OC(C)CN1CCN(CCCO)CC1)c(C)n2C(=O)c1ccc(Cl)cc1 (stereo not shown) [Example 8, 2-{4-(3-hydroxypropyl)-1-piperazinyl}-1-methylethyl 1-(p-chlorobenzoyl)-5-methoxy-2-methyl-3-indoylacetate dimaleate]",,
6.2,22.8,"COc1ccc2c(c1)c(CC(=O)OC(C)CN1CCN(CCCCCO)CC1)c(C)n2C(=O)c1ccc(Cl)cc1 (stereo not shown) [Example 10, 2-{4-(5-hydroxypentyl)-1-piperazinyl}-1-methylethyl 1-(p-chlorobenzoyl)-5-methoxy-2-methyl-3-indoylacetate dimaleate]",,
4.7,41.2,"COc1ccc2c(c1)c(CC(=O)OC(C)CN1CCN(CCCCCCO)CC1)c(C)n2C(=O)c1ccc(Cl)cc1 (stereo not shown) [Example 11, 2-{4-(6-hydroxyhexyl)-1-piperazinyl}-1-methylethyl 1-(p-chlorobenzoyl)-5-methoxy-2-methyl-3-indoylacetate dimaleate]",,
